In ChEMBL document CHEMBL5126555, “Targeting breast cancer resistance protein (BCRP/ABCG2): Functional inhibitors and expression modulators” (Eur J Med Chem, 2022):

Assays:
[1] = target: T1, Broad substrate specificity ATP-binding cassette transporter ABCG2 (Homo sapiens, UniProt Q9UNQ0); experiment: Inhibition of ABCG2 (unknown origin) expressed in human HEK293 cells assessed as BODIPY-Prazosin uptake and measured after 2 hrs by FACScan flow cytometry analysis; type: cell-based
T1 sequence (Q9UNQ0 whole entry): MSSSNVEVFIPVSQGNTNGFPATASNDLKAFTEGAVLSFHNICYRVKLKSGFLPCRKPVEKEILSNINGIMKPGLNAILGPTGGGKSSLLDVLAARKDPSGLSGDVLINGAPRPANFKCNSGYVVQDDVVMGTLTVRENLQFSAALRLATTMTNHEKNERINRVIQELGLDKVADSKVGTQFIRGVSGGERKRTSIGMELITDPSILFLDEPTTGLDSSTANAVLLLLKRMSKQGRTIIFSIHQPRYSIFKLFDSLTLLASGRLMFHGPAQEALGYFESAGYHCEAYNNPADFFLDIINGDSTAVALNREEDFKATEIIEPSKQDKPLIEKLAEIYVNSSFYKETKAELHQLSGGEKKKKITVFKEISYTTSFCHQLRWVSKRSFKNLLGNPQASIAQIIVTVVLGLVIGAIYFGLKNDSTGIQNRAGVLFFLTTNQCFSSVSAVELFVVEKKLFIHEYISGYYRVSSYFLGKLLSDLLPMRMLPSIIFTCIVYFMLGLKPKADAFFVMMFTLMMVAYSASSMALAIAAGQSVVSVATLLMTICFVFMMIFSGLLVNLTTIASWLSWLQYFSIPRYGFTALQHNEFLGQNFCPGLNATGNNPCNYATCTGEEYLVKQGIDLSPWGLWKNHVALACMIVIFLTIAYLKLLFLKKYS

[2] = target: T1, Broad substrate specificity ATP-binding cassette transporter ABCG2; settings: saos-2
Description: Inhibition of ABCG2 (unknown origin) expressed in human SAOS-2 cells mediated Hoechst 33342 efflux preincubated with compound for 15 mins followed by substrate addition and measured after 45 mins using Hoechst 33342 as substrate by flow cytometry

[3] = target: T1, Broad substrate specificity ATP-binding cassette transporter ABCG2; experiment: Inhibition of ABCG2 (unknown origin) expressed in human MCF7 cells membrane mediated [125I]iodoarylazidoprazosin photolabelling for 10 mins followed by UV light irradiation for 10 mins by radiometric scintillation analysis; type: cell membranes
[4] = target: T1, Broad substrate specificity ATP-binding cassette transporter ABCG2; experiment: Inhibition of ABCG2 (unknown origin) expressed in human MCF7-VP cells mediated mitoxantrone efflux assessed as intracellular mitoxantrone level and measured after 45 mins by flow cytometry analysis; type: cell-based
[5] = target: T1, Broad substrate specificity ATP-binding cassette transporter ABCG2; experiment: Inhibition of ABCG2 (unknown origin) expressed in human K562 cells assessed as extrusion of Hoechst 33342 using Hoechst 33342 as substrate by flow cytometry; type: cell-based
[6] = target: T1, Broad substrate specificity ATP-binding cassette transporter ABCG2; experiment: Inhibition of human ABCG2 expressing membrane vesicles assessed inhibition of BCRP- mediated transport of [3H]estrone 3-sulfate for 2 mins using [3H]-estrone sulfate as substrate by radiometric scintillation analysis; type: cell membranes, Membrane vesicle
[7] = target: T1, Broad substrate specificity ATP-binding cassette transporter ABCG2; experiment: Inhibition of ABCG2 (unknown origin) expressed in human NCI-H460 cells mediated pheophorbide A efflux for 2 to 20 hr by fluorescence plate reader analysis; type: cell-based
[8] = target: T1, Broad substrate specificity ATP-binding cassette transporter ABCG2; experiment: Inhibition of ABCG2 (unknown origin) expressed in human S1M180 cells assessed as intracellular accumulation of rhodamine 123 using rhodamine 123 as substrate by flow cytometry; type: cell-based
[9] = target: T1, Broad substrate specificity ATP-binding cassette transporter ABCG2; experiment: Inhibition of human ABCG2 expressed in dog MDCK-II-BCRP cells membrane vesicles mediated transport of 3[H]-methotrexate for 5 mins using [3H]-methotrexate as substrate by radiometric scintillation analysis; type: cell membranes, Membrane vesicle
[10] = target: T1, Broad substrate specificity ATP-binding cassette transporter ABCG2; experiment: Inhibition of ABCG2 (unknown origin) expressed in human HEK293 cells mediated mitoxantrone efflux assessed as intracellular mitoxantrone level and measured after 30 mins by FACSflow cytometry analysis; type: cell-based
[11] = target: T1, Broad substrate specificity ATP-binding cassette transporter ABCG2
Description: Inhibition of ABCG2 (unknown origin) expressed in human MCF7 cells membrane mediated [125I]iodoarylazidoprazosin photolabelling for 5 mins followed by UV light irradiation for 10 mins by radiometric scintillation analysis

[12] = target: T1, Broad substrate specificity ATP-binding cassette transporter ABCG2; experiment: Inhibition of ABCG2 (unknown origin) expressed in human S1M180 cells mediated [3H]-mitoxantrone efflux assessed as intracellular [3H]-mitoxantrone level by flow cytometry; type: cell-based

CS(=O)(=O)c1ccc(C(=O)Nc2ccc(Cl)c(-c3ccccn3)c2)c(Cl)c1 [VISMODEGIB]
IC50 [1]: 1.4 µM

CNC(=O)c1cc(Oc2ccc(NC(=O)Nc3ccc(Cl)c(C(F)(F)F)c3)cc2)ccn1 [SORAFENIB]
IC50 [2]: 3.1 µM

COc1cc2nccc(Oc3ccc(NC(=O)Nc4cc(C)on4)c(Cl)c3)c2cc1OC [TIVOZANIB]
IC50 [3]: 0.07 µM

COc1cc(/C=C/C(=O)CC(=O)/C=C/c2ccc(O)c(OC)c2)ccc1O [CURCUMIN]
IC50 [4]: 1.63 µM

COc1cc(Nc2c(C#N)cnc3cc(OCCCN4CCN(C)CC4)c(OC)cc23)c(Cl)cc1Cl [BOSUTINIB]
IC50 [5]: 2 µM

COc1cc(Nc2ncc(F)c(Nc3ccc4c(n3)N(COP(=O)(O)O)C(=O)C(C)(C)O4)n2)cc(OC)c1OC [FOSTAMATINIB]
IC50 [6]: 0.05 µM

COC(=O)[C@H]1[C@H]2C[C@@H]3c4[nH]c5cc(OC)ccc5c4CCN3C[C@H]2C[C@@H](OC(=O)c2cc(OC)c(OC)c(OC)c2)[C@@H]1OC [RESERPINE]
IC50 [7]: 11.8 µM

COc1cc2c(Nc3ccc(Br)cc3F)ncnc2cc1OCC1CCN(C)CC1 [VANDETANIB]
IC50 [8]: 0.2 µM

CC1=NN(c2ccc(C)c(C)c2)C(=O)/C1=N\Nc1cccc(-c2cccc(C(=O)O)c2)c1O [ELTROMBOPAG]
IC50 [9]: 3.1 µM

c1ccc2c(c1)OCO2
IC50 [10]: 0.94 µM

CS(=O)(=O)CCNCc1ccc(-c2ccc3ncnc(Nc4ccc(OCc5cccc(F)c5)c(Cl)c4)c3c2)o1 [LAPATINIB]
IC50 [11]: 3.2 µM

CNC(=O)c1cc(Oc2ccc(NC(=O)Nc3ccc(Cl)c(C(F)(F)F)c3)c(F)c2)ccn1 [REGORAFENIB]
IC50 [12]: 3 µM
